Source: US7091311B2, “Peptides and compounds that bind to a receptor” (SmithKline Beecham Corporation, priority 1996, dated 2006)
Where “and” joins values, the source holds several entries; their conditions need not be identical. Equal entries are not always repeated. Where two headings read alike, the source gives them in different places. Where a SMILES comes first, the peptide text is derived from it. Where no end group is shown, it is not given here.

Columns and labels:
human TPO-R = target: T1, human TPO-R (Homo sapiens, UniProt P40238); assay: thrombopoietin dependent cell proliferation assay, TPO-R transfected Ba/F3 cells (MTT); assay type: cell-based
T1 construct: transfected with full length human TPO-R; expressed in transfected cells; host or cells: murine Ba/F3 cells
T1 sequence (P40238 26-635): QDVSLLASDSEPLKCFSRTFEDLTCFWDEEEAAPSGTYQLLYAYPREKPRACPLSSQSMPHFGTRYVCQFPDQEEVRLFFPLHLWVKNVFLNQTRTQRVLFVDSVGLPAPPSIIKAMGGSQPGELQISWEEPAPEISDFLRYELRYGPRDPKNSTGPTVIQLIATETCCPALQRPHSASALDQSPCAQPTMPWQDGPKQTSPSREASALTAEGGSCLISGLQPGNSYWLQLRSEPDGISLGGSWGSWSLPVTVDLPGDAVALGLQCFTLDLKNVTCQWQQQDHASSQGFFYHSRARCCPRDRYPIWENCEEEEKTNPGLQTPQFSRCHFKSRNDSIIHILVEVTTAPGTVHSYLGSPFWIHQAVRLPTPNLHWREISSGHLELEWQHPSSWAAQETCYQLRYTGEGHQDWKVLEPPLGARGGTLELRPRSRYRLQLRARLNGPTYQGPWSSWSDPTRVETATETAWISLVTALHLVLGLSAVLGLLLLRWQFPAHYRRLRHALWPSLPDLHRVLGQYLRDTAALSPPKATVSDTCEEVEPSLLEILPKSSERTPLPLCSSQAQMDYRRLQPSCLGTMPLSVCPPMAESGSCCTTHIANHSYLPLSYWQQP
Method: Bioactivity of the peptides can be measured using a thrombopoietin dependent cell proliferation assay. Murine IL-3 dependent Ba/F3 cells were transfected with full length human TPO-R. In the absence of IL-3 (WEHI-3 conditioned media), these cells are dependent on TPO for proliferation.
The cells were grown in complete RPMI-10 media, containing 10% WEHI-3 conditioned media, then washed twice in PBS, resuspended in media which lacked WEHI-3 conditioned media, and added to wells containing dilutions of peptide or TPO at 2×10^4 cells/well. The cells were incubated for 48 hours at 37° C. in a humidified 5% Co2 atmosphere and metabolic activity was assayed by the reduction of MTT to formazan, with absorbance at 570 nm measured on an ELISA plate reader.

TPO-R = target: T2, TPO-R (Homo sapiens, UniProt P40238); assay: competition binding assay: MBP-TPO156 binding to immobilized TPO-R (ELISA)
T2 construct: made in house
T2 sequence (P40238 26-491 limits assumed): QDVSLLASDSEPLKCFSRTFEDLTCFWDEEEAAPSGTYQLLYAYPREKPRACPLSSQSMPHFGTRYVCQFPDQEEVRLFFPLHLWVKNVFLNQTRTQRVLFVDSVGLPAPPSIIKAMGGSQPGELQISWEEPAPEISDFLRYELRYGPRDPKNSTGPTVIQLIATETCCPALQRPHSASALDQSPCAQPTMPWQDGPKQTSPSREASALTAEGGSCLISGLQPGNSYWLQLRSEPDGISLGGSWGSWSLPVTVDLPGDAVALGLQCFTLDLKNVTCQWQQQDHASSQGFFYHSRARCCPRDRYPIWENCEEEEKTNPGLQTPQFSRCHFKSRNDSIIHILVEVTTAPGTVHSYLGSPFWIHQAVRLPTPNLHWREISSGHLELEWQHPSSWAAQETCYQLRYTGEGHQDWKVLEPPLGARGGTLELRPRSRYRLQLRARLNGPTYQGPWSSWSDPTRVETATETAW
Method: A variety of methods can be used to evaluate IC50 values. For example, an equilibrium binding ELISA assay, using either MBP-TPO or lacI-peptide tracer, was used to determine whether the peptides inhibit the binding of TPO to the extracellular domain of the TPO receptor. Typically, the IC50 value were determined using the free peptide. The IC50value can be determined using the free peptide, which optionally can be C-terminally amidated, or can be prepared as an ester or other carboxy amide.
Binding affinities of chemically synthesized peptides for TPO-R were measured in a competition binding assay. The wells of a microtiter plate were coated with 1 mg streptavidin, blocked with PBS/1% BSA, followed by 50 ng of biotinylated anti-receptor immobilizing antibody (Ab179). The wells were then treated with a 1:10 dilution of soluble TPO-R harvest. Various concentrations of peptide or peptide mimetic were mixed with a constant amount of a truncated form of TPO consisting of residues 1–156 fused to the C-terminus of maltose binding protein (MBP-TPO156). The peptide MBP-TPO156 mixtures were added to the TPO-R coated wells, incubated for 2 hours at 4° C. and then washed with PBS. The amount of MBP-TPO156 that was bound at equilibrium was measured by adding a rabbit anti-sera directed against MBP, followed by alkaline phosphatase conjugated goat anti-rabbit IgG. The amount of alkaline phosphatase in each well was then determined using standard methods.
The assay is conducted over a range of peptide concentrations and the results are graphed such that the y axis represents the amount of bound MBP-TPO156 and the x axis represents the concentration of peptide or peptide mimetic.

marrow cells [1] = assay: mouse marrow cells in liquid culture, AChE-staining megakaryocytes; assay type: cell-based, Balb/C mice
Method: To assess the feasibility of mice as a convenient test species, several in vitro experiments, designed to measure the activity of the test compounds on the mouse receptor, have been done. First, marrow cells, harvested from the femurs of 8 to 9 week one Balb/C mice, were incubated for 7 days in liquid culture with either rhuTPO or various concentrations of the test peptides. At the end of the incubation period, the cultures were concentrated by Cytospin, stained for acetylcholinesterase (AChE, a diagnostic of mouse megakaryocytes), and counted by microscopic analysis. One (1) nM rhuTPO gave rise to the outgrowth of very large (>40 um) non-adherent cells that stain for AChE. These cells appear to be mature megakaryocytes. From an initial seeding of 10^6 total marrow cells/ml (in 50 ml cultures) an estimated 1 to 2×10^6 megakaryocytes developed. This response to TPO was designated as “maximal”. Control cultures containing no added growth factors produced very few AChE-positive cells. […] This finding was the first evidence that this peptide family is active on the murine receptor. In a second experiment, marrow cells were harvested and cultured in semi-solid medium (methylcellulose) containing either no factors, 1 nM rhuTPO, or 10 uM Peptide A. After 7 days in culture, colonies of large cell (presumed to be megakaryocytes) were counted and grouped into small colonies (3–5 cells) or large colonies (greater than 6 cells). TPO and the test peptides both produced substantially more colonies of both sized than did the negative control cultures.

TPO receptor = target: T3, TPO receptor (Homo sapiens, UniProt P40238); assay: microphysiometer assay: rate of acidification of the extracellular medium in response to TPO receptor stimulation; assay type: cell-based; conditions: Table 9; read-out: EC50 (nM) Microphys.
T3 sequence (P40238 26-635): T1 sequence (P40238 26-635)
Method: In this example cyclized compounds were subjected to three assays. […] Finally, a microphysiometer (Molecular Devices Corp.) assay was performed. […] The ranges for EC50 are symbolically indicated as for IC50 described above.

marrow cells [2] = assay: marrow cells in semi-solid medium (methylcellulose), colonies of large cells; assay type: cell-based, Balb/C mice; conditions: 1 nM TPO; 7 days in methylcellulose; replicate cultures
Method: To assess the feasibility of mice as a convenient test species, several in vitro experiments, designed to measure the activity of the test compounds on the mouse receptor, have been done. First, marrow cells, harvested from the femurs of 8 to 9 week one Balb/C mice, were incubated for 7 days in liquid culture with either rhuTPO or various concentrations of the test peptides. At the end of the incubation period, the cultures were concentrated by Cytospin, stained for acetylcholinesterase (AChE, a diagnostic of mouse megakaryocytes), and counted by microscopic analysis. One (1) nM rhuTPO gave rise to the outgrowth of very large (>40 um) non-adherent cells that stain for AChE. These cells appear to be mature megakaryocytes. From an initial seeding of 10^6 total marrow cells/ml (in 50 ml cultures) an estimated 1 to 2×10^6 megakaryocytes developed. This response to TPO was designated as “maximal”. Control cultures containing no added growth factors produced very few AChE-positive cells. […] In a second experiment, marrow cells were harvested and cultured in semi-solid medium (methylcellulose) containing either no factors, 1 nM rhuTPO, or 10 uM Peptide A. After 7 days in culture, colonies of large cell (presumed to be megakaryocytes) were counted and grouped into small colonies (3–5 cells) or large colonies (greater than 6 cells). […]

[3] = Table 9, read-out: EC50 (nM) Prolif.
[4] = Table 7, dimer compounds, read-out: IC50

AF 12885 with streptavidin (SA): complexed biotinylated peptide: G G C A D G P T L R E W I S F C G G K (Biotin) preincubated with streptavidin, 4:1 molar ratio
potency of pre-formed streptavidin complex relative to the free peptide (human TPO-R; peptide preincubated with streptavidin at 4:1 molar ratio, FIG. 2): approximately 10 times

CC[C@H](C)[C@@H]1NC(=O)[C@@H](N)CSSC[C@@H](C(N)=O)NC(=O)[C@H](C)NC(=O)[C@H](CCCNC(=N)N)NC(=O)[C@H](C)NC(=O)[C@H](C)NC(=O)[C@H](CC(C)C)NC(=O)[C@H](Cc2c[nH]c3ccccc23)NC(=O)[C@H](CCC(N)=O)NC(=O)[C@H](CCCNC(=N)N)NC(=O)[C@H](CC(C)C)NC(=O)[C@H]([C@@H](C)O)NC(=O)[C@@H]2CCCN2C(=O)CNC(=O)[C@H](CCC(=O)O)NC1=O (HELM PEPTIDE1{C.I.E.G.P.T.L.R.Q.W.L.A.A.R.A.C.[am]}$PEPTIDE1,PEPTIDE1,1:R3-16:R3$$$V2.0)
EC50 (human TPO-R; [3]): ≤ 500 nM

H-IEGPTLRQWLAARA-NH2
IC50 (TPO-R; Table 9, read-out: IC50): ≤ 500 nM
EC50 (human TPO-R; [3]): ≤ 500 nM

S.A. alone: streptavidin alone [reference compound]
Response (AChE-staining megakaryocytes) (marrow cells [1]; concentration tested 1000 nM (putative 1:4 complex), 7 days, maximal = compared to recombinant human TPO, 25–30% ACE staining cells): none

CC[C@H](C)[C@H](N)C(=O)N[C@@H](CCC(=O)O)C(=O)NCC(=O)N1CCC[C@H]1C(=O)N[C@H](C(=O)N[C@@H](CC(C)C)C(=O)N[C@@H](CCCNC(=N)N)C(=O)N[C@@H](CCC(N)=O)C(=O)N[C@@H](Cc1c[nH]c2ccccc12)C(=O)N[C@@H](CC(C)C)C(=O)N[C@@H](C)C(=O)N[C@@H](C)C(=O)N[C@@H](CCCNC(=N)N)C(=O)N[C@@H](C)C(=O)NCCCC[C@H](NC(=O)CCNC(=O)[C@H](C)NC(=O)[C@H](CCCNC(=N)N)NC(=O)[C@H](C)NC(=O)[C@H](C)NC(=O)[C@H](CC(C)C)NC(=O)[C@H](Cc1c[nH]c2ccccc12)NC(=O)[C@H](CCC(N)=O)NC(=O)[C@H](CCCNC(=N)N)NC(=O)[C@H](CC(C)C)NC(=O)[C@@H](NC(=O)[C@@H]1CCCN1C(=O)CNC(=O)[C@H](CCC(=O)O)NC(=O)[C@@H](N)[C@@H](C)CC)[C@@H](C)O)C(N)=O)[C@@H](C)O
IC50 (TPO-R; [4]): ≤ 500 nM
IC50 (TPO-R; Table 9, read-out: IC50): ≤ 500 nM
EC50 (human TPO-R; [3]): ≤ 500 nM
EC50 (human TPO-R; Table 10, value outside parentheses, read-out: EC50 (nM) Cell Prolif.): ≤ 500 nM
EC50 (TPO receptor): ≤ 500 nM

CC[C@H](C)[C@H](NC(=O)[C@H](Cc1c[nH]c2ccccc12)NC(=O)[C@H](CCC(=O)O)NC(=O)[C@H](CCCNC(=N)N)NC(=O)[C@H](CC(C)C)NC(=O)[C@@H](NC(=O)[C@@H]1CCCN1C(C)=O)[C@@H](C)O)C(=O)N[C@@H](CO)C(=O)N[C@@H](Cc1ccccc1)C(=O)N[C@@H](CSSC[C@H](NC(=O)[C@H](Cc1ccccc1)NC(=O)[C@H](CO)NC(=O)[C@@H](NC(=O)[C@H](Cc1c[nH]c2ccccc12)NC(=O)[C@H](CCC(=O)O)NC(=O)[C@H](CCCNC(=N)N)NC(=O)[C@H](CC(C)C)NC(=O)[C@@H](NC(=O)[C@@H]1CCCN1C(C)=O)[C@@H](C)O)[C@@H](C)CC)C(N)=O)C(N)=O (HELM PEPTIDE1{[ac].P.T.L.R.E.W.I.S.F.C.[am]}|PEPTIDE2{[ac].P.T.L.R.E.W.I.S.F.C.[am]}$PEPTIDE1,PEPTIDE2,11:R3-11:R3$$$V2.0; C-terminus assumed)
IC50 (TPO-R; [4]): ≤ 500 nM

TPO (R & D): recombinant human TPO
megakaryocytes developed (estimated) (marrow cells [1]; 1 nM rhuTPO, initial seeding 10^6 total marrow cells/ml in 50 ml cultures, 7 days): 1 to 2×10^6
Response (AChE-staining megakaryocytes) (marrow cells [1]; concentration tested 1 nM, 7 days liquid culture): “maximal”
large colonies, 6–12 large cells (marrow cells [2]): 6 and 1 and 8 and 3
small colonies, 3–5 large cells (marrow cells [2]): 15 and 12 and 16 and 13

SIEGPTLREWLTSRTPHS [S I E G P T L R E W L T S R T P H S]
IC50 (TPO-R; Table 3, free peptide, read-out: Affinity (IC50)): ≤ 500 nM

CC[C@H](C)[C@@H]1NC(=O)[C@H](Cc2c[nH]c3ccccc23)NC(=O)[C@H](CCC(=O)O)NC(=O)[C@H](CCCNC(=N)N)NC(=O)[C@H](CC(C)C)NC(=O)[C@H]([C@@H](C)O)NC(=O)[C@@H]2CCCN2C(=O)CNC(=O)[C@H](CC(=O)O)NC(=O)[C@H](C)NC(=O)CSC[C@@H](C(N)=O)NC(=O)[C@H](Cc2ccccc2)NC(=O)[C@H](CO)NC1=O (HELM PEPTIDE1{[O=C(C[*:3])[*:2]].A.D.G.P.T.L.R.E.W.I.S.F.C.[am]}$PEPTIDE1,PEPTIDE1,1:R3-14:R3$$$V2.0)
IC50 (TPO-R; Table 4, cyclized compounds, read-out: IC50): ≤ 500 nM
